What all share (type): cell-based
Experiment [1] has as its target T1, hGIPR (Homo sapiens, UniProt P48546).
T1 sequence (P48546 22-466): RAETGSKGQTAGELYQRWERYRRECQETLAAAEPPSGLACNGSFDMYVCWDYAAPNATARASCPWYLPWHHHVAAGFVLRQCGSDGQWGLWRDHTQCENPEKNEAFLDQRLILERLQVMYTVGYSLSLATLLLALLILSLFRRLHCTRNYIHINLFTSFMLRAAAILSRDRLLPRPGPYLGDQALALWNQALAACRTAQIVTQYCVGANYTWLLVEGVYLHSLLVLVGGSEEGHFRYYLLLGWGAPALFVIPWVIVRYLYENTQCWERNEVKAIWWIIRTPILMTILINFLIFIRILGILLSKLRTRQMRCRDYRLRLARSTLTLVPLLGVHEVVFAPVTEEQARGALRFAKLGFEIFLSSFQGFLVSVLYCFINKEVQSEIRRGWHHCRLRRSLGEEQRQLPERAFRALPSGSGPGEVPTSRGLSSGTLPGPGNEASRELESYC
Kind of experiment: Functional cAMP activity in the presence of 1% HSA. Particulars: read-out: cAMP Rel EC50, hGIPR.

In experiment [2] the target is T2, hGLP-1R (Homo sapiens, UniProt P43220). Kind of experiment: Functional cAMP activity in the presence of 1% HSA. Particulars: read-out: cAMP Rel EC50, hGLP-1R.
The target in a further experiment is human GcgR (Homo sapiens, UniProt P47871). Kind of experiment: Functional cAMP activity in the presence of 1% HSA. Particulars: read-out: cAMP Rel EC50, hGcgR.
Experiment [3] addresses T1, hGIPR. In words: Functional cAMP activation in the presence of 0.1% casein (no HSA). Particulars: read-out: Relative cAMP EC50, hGIPR.
Experiment [4] addresses T2, hGLP-1R. Described as above. Particulars: read-out: Relative cAMP EC50, hGLP-1R.
The target of the next experiment is hGcgR (Homo sapiens, UniProt P47871). The experiment is described as above. Particulars: read-out: Relative cAMP EC50, hGcgR.
[5] abbreviates: HEK-293 clonal cell line, in the presence of 1% HSA, geometric mean of relative EC50.
[6] abbreviates: in the presence of 0.1% casein (no HSA), geometric mean.
[7] abbreviates: HEK-293 clonal cell line, 1% HSA, geometric mean of relative EC50.
[8] abbreviates: in the presence of 0.1% casein (no HSA), geometric mean of relative EC50.

Like-named read-outs stand apart in the source and are kept apart here. Starred links: 1 amine or outer side, 2 acyl side, 3 side chain; linkers in the order of their positions; H or OH if unused. Non-standard residues stand in square brackets, D forms with d. Residues, ends and D or L forms follow the SMILES beside them. Groups on a side chain read outwards from the residue. No end group written: not given here. *: point of attachment. C18 diacid = O=C(O)CCCCCCCCCCCCCCCCC(=O)*; αMePhe(2-F) = C[C@](N)(Cc1ccccc1F)C(=O)O; γGlu = O=C(O)[C@H](CCC(=O)[*:2])N[*:1]; αMe4Pal = C[C@](N)(Cc1ccncc1)C(=O)O; αMeY = C[C@](N)(Cc1ccc(O)cc1)C(=O)O; 4Pal = N[C@@H](Cc1ccncc1)C(=O)O; αMeL = CC(C)C[C@](C)(N)C(=O)O; αMeS = C[C@](N)(CO)C(=O)O; Orn = NCCC[C@H](N)C(=O)O; AEEA = NCCOCCOCC(=O)O; Aib = CC(C)(N)C(=O)O
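Wherever Relative cAMP EC50, hGIPR is given: intracellular cAMP rise after 30 min at 37 °C read by HTRF against a standard curve, scaled between buffer alone (0%) and top control ligand concentration (100%), four-parameter fit.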
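Wherever Relative cAMP EC50, hGLP-1R is given: intracellular cAMP rise after 30 min at 37 °C read by HTRF, normalized between buffer only (0%) and maximal control ligand (100%), four-parameter variable-slope fit.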
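Wherever Relative cAMP EC50, hGcgR is given: intracellular cAMP rise after 30 min at 37 °C, read by HTRF against a cAMP standard curve, scaled from buffer only (0%) to maximal control ligand response (100%).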

T2 sequence (P43220 24-463): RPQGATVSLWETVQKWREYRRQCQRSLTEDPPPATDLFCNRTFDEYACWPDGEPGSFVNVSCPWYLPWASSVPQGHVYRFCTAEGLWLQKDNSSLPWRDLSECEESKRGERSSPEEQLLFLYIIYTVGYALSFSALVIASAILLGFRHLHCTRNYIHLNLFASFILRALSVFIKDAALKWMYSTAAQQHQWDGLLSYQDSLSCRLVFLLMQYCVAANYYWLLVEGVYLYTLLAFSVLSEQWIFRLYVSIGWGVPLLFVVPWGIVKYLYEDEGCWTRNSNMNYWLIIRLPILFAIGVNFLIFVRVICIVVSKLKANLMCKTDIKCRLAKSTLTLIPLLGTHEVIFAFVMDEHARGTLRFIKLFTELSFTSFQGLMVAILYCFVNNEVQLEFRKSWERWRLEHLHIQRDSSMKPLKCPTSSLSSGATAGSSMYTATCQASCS
hGcgR, sequence (P47871 26-477): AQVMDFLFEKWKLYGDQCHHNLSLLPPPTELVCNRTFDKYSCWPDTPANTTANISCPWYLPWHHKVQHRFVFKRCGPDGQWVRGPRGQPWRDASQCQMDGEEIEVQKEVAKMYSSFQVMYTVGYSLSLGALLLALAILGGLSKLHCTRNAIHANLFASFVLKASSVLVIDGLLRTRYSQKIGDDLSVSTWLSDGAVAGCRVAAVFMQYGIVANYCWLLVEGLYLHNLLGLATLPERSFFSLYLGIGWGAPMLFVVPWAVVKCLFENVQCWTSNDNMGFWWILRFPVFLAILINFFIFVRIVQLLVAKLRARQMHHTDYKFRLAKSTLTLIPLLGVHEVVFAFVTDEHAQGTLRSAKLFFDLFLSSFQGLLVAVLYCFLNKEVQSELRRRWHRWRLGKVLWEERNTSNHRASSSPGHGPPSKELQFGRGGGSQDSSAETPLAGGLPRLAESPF
human GcgR, sequence (P47871 26-477): as above

Broadly, the EC50 is the concentration giving half of the maximal effect. In the case of `CC[C@H](C)[C@H](NC(=O)[C@H](Cc1ccccc1)NC(=O)[C@H](C)NC(=O)C(C)(C)NC(=O)[C@H](CCC(N)=O)NC(=O)[C@H](C)NC(=O)[C@H](CCCCNC(=O)CC[C@H](NC(=O)CC[C@H](NC(=O)CCCCCCCCCCCCCCCCC(=O)O)C(=O)O)C(=O)O)NC(=O)[C@H](CCCCN)NC(=O)[C@H](CC(=O)O)NC(=O)[C@H](CC(C)C)NC(=O)[C@H](CC(C)C)NC(=O)[C@@H](NC(=O)[C@H](CO)NC(=O)[C@H](Cc1ccc(O)cc1)NC(=O)[C@H](CC(=O)O)NC(=O)[C@H](CO)NC(=O)[C@@H](NC(=O)[C@](C)(Cc1ccccc1F)NC(=O)[C@@H](NC(=O)CNC(=O)[C@H](CCC(N)=O)NC(=O)C(C)(C)NC(=O)[C@@H](N)Cc1ccc(O)cc1)[C@@H](C)O)[C@@H](C)O)[C@@H](C)CC)C(=O)N[C@@H](CCC(=O)O)C(=O)N[C@@H](Cc1ccc(O)cc1)C(=O)N[C@@H](CC(C)C)C(=O)N[C@@H](CCC(=O)O)C(=O)N[C@@H](CCC(=O)O)C(=O)NCC(=O)NCC(=O)N1CCC[C@H]1C(=O)N[C@@H](CO)C(=O)N[C@@H](CO)C(=O)NCC(=O)N[C@@H](C)C(=O)N1CCC[C@H]1C(=O)N1CCC[C@H]1C(=O)N1CCC[C@H]1C(=O)N[C@@H](CO)C(N)=O` [Example 406] (H-Y[Aib]QGT[αMePhe(2-F)]TSDYSILLDKK([γGlu-γGlu-C18 diacid])AQ[Aib]AFIEYLEEGGPSSGAPPPS-NH2), the EC50 was 10.5 nM at hGIPR [1]; 27.8 nM on hGLP-1R [2]; 254 nM at human GcgR; 0.0233 nM at hGIPR [3]; 0.208 nM at hGLP-1R [4]; 1.23 nM on hGcgR.
In the case of “Y[Aib]QGTFTSD[4Pal]SQ[αMeL]LDKK([γGlu-γGlu-C18 diacid])AQ[αMe4Pal]AFIE[αMe4Pal]LIE[Aib]GPSSGAPPPSGEE-NH2 [Example 1121]”, the concentration for a half-maximal effect (EC50) is 4.55 nM on hGIPR [1] (setting [5]); 165 nM on hGLP-1R [2] (setting [5]); 566 nM on human GcgR (setting [5]); 0.115 nM on hGIPR [3] (setting [6]); 5.23 nM at hGLP-1R [4] (setting [6]); 8.83 nM at hGcgR (setting [6]).
Turning to “Y[Aib]QGT[αMePhe(2-F)]TSD[4Pal][αMeS]I[αMeL]LD[Orn]K([γGlu-γGlu-C18 diacid])AQ[Aib]QFI[dE][αMeY]LQEGGPSSGEPPPEGTE-NH2 [Example 528]”, the 50% effective concentration (EC50) worked out at 1.55 nM on hGIPR [1]; 24.3 nM on hGLP-1R [2]; 474 nM on human GcgR; 0.0333 nM on hGIPR [3]; 0.434 nM on hGLP-1R [4]; 7 nM on hGcgR.
Turning to “H-Y[Aib]QGT[αMePhe(2-F)]TSD[4Pal]SI[αMeL]LDKK([γGlu-γGlu-C18 diacid])AQ[Aib]AFIEYLSEGGPSSGEPPPSGSEE-NH2 [Example 632]”, the concentration giving a half-maximal response (EC50) at hGIPR [1] (setting [7]) stood at 5.48 nM; on hGLP-1R [2] (setting [7]) it was 88.2 nM; on human GcgR (setting [7]), 1600 nM; at hGIPR [3] (setting [8]), 0.068 nM; on hGLP-1R [4] (setting [8]), 0.951 nM; on hGcgR (setting [8]), 13.5 nM.
Regarding “H-Y[Aib]QGTFTSD[4Pal][αMeS]I[αMeL]LD[Orn]K([dE-γGlu-C18 diacid])AQ[αMe4Pal]QFIQ[αMeY]LIE[Aib]GPSSGAPPPSGGGE-NH2 [Example 1136]”, the EC50 amounted to 0.949 nM on hGIPR [1]; 39.2 nM at hGLP-1R [2]; 121 nM on human GcgR; 0.0131 nM on hGIPR [3] (setting [6]); 0.453 nM at hGLP-1R [4] (setting [6]); 1.26 nM on hGcgR (setting [6]).
As to “H-Y[Aib]QGT[αMePhe(2-F)]TSD[4Pal][αMeS]I[αMeL]LD[Orn]K([AEEA-γGlu-C18 diacid])AA[Aib]EFI[dE][αMeY]LIEGGPSSGAPPPSGQ-OH [Example 722]”, the EC50 is 0.953 nM at hGIPR [1]; 27.2 nM at hGLP-1R [2]; 170 nM at human GcgR; 0.01 nM on hGIPR [3]; 0.252 nM on hGLP-1R [4]; 1.71 nM at hGcgR.
On to “H-Y[Aib]QGT[αMePhe(2-F)]TSD[4Pal]SI[αMeL]LD[Orn]K([γGlu-γGlu-C18 diacid])AQ[αMe4Pal]EFI[dE][αMeY]LAEGGPSSGAPPPSGS-NH2 [Example 646]”, for which the EC50 on hGIPR [1] worked out at 1.09 nM; on hGLP-1R [2] it was 90.5 nM; on human GcgR it was 1260 nM; at hGIPR [3] it was 0.0336 nM; at hGLP-1R [4] it was 2.58 nM; at hGcgR, 23.1 nM.
Turning to “H-Y[Aib]QGTFTSD[4Pal]S[Orn][αMeL]LDKK([γGlu-γGlu-C18 diacid])AQ[Aib]AFIE[αMeY]LLEGGPSSGAPPPSGS-NH2 [Example 942]”, the 50% effective concentration (EC50) at hGIPR [1] is 28.3 nM; at hGLP-1R [2] it was 490 nM; at human GcgR it was 1560 nM; on hGIPR [3] (setting [6]), 0.188 nM; at hGLP-1R [4] (setting [6]), 3.52 nM; on hGcgR (setting [6]) it was 6.32 nM.
Turning to “H-Y[Aib]QGTFTSDFS[Orn][αMeL]LDKK([AEEA-γGlu-C18 diacid])AQ[Aib]AFIEYLLEGGPSSGAPPPGGSE-NH2 [Example 65]”, the EC50 amounted to 30.2 nM at hGIPR [1]; 462 nM at hGLP-1R [2]; 808 nM at human GcgR; 0.739 nM on hGIPR [3] (setting [6]); 4.21 nM on hGLP-1R [4] (setting [6]); 6.49 nM on hGcgR (setting [6]).
Take “H-Y[Aib]QGT[αMePhe(2-F)]TSD[4Pal][αMeS]I[αMeL]LD[Orn]K([AEEA-γGlu-γGlu-C18 diacid])AQ[αMe4Pal]EFI[dE][αMeY]LIEGGPSSGEPPPSGSE-NH2 [Example 1179]”: the EC50 at hGIPR [1] came to 0.58 nM; at hGLP-1R [2] it was 37.9 nM; at human GcgR, 197 nM; on hGIPR [3] (setting [6]) it was 0.0102 nM; on hGLP-1R [4] (setting [6]) it was 0.652 nM; on hGcgR (setting [6]), 2.87 nM.
In the case of `CC[C@H](C)[C@H](NC(=O)[C@H](Cc1ccccc1)NC(=O)[C@H](CCCN)NC(=O)C(C)(C)NC(=O)[C@H](CCC(N)=O)NC(=O)[C@H](C)NC(=O)[C@H](CCCCNC(=O)COCCOCCNC(=O)CC[C@H](NC(=O)CCCCCCCCCCCCCCCCC(=O)O)C(=O)O)NC(=O)[C@H](CCCN)NC(=O)[C@H](CC(=O)O)NC(=O)[C@H](CC(C)C)NC(=O)[C@](C)(CC(C)C)NC(=O)[C@@H](NC(=O)[C@](C)(CO)NC(=O)[C@H](Cc1ccncc1)NC(=O)[C@H](CC(=O)O)NC(=O)[C@H](CO)NC(=O)[C@@H](NC(=O)[C@](C)(Cc1ccccc1F)NC(=O)[C@@H](NC(=O)CNC(=O)[C@H](CCC(N)=O)NC(=O)C(C)(C)NC(=O)[C@@H](N)Cc1ccc(O)cc1)[C@@H](C)O)[C@@H](C)O)[C@@H](C)CC)C(=O)N[C@H](CCC(=O)O)C(=O)N[C@@](C)(Cc1ccc(O)cc1)C(=O)N[C@@H](CC(C)C)C(=O)N[C@@H](CC(C)C)C(=O)N[C@@H](CCC(=O)O)C(=O)NCC(=O)NCC(=O)N1CCC[C@H]1C(=O)N[C@@H](CO)C(=O)N[C@@H](CO)C(=O)NCC(=O)N[C@@H](CCC(=O)O)C(=O)N1CCC[C@H]1C(=O)N1CCC[C@H]1C(=O)N1CCC[C@H]1C(=O)N[C@@H](CCC(=O)O)C(N)=O` [Example 377] (H-Y[Aib]QGT[αMePhe(2-F)]TSD[4Pal][αMeS]I[αMeL]LD[Orn]K([AEEA-γGlu-C18 diacid])AQ[Aib][Orn]FI[dE][αMeY]LLEGGPSSGEPPPE-NH2), the EC50 turned out to be 11.1 nM at hGIPR [1]; 29.4 nM on hGLP-1R [2]; 163 nM on human GcgR; 0.0377 nM at hGIPR [3] (setting [6]); 0.367 nM on hGLP-1R [4] (setting [6]); 1.36 nM on hGcgR (setting [6]).
